The subject of test [1] is Klebsiella pneumoniae ATCC 13883. As to the kind of experiment: MIC, two-fold microdilution (EUCAST), K. pneumoniae reference strain. The test is classed as cell-based. The settings on record: Klebsiella pneumoniae, ATCC13883, 18 h, read-out: MIC (µM) Klebsiella pneumoniae ATCC 13883. The source says: (§1) A panel of reference bacteria, including Escherichia coli NCTC 8196, Staphylococcus aureus ATCC 6538, Klebsiella pneumoniae ATCC 13883, and Pseudomonas aeruginosa NCTC 6749, was used to assess the antibacterial activity of the nine tested aziridine phosphines (1–4) and aziridine phosphine oxides (5–9). The two-fold microdilution method, following EUCAST guidelines, was used to determine a minimal inhibitory concentration (MIC) of each compound, as presented in Table S1.
(§2) Antibacterial activity: The in vitro antibacterial activity of nine tested aziridine phosphines (1–4) and aziridine phosphine oxides (5–9) was evaluated against reference bacterial strains (E. coli NCTC 8196, S. aureus ATCC 6538, K. pneumoniae ATCC 13883, P. aeruginosa NCTC 6749) and 12 S. aureus clinical isolates, including two methicillin-resistant isolates (MRSA, D15 and D17) obtained from infected patients hospitalized at the Oncological Hospital in Lodz (Poland). All strains were kept frozen at −80 °C in Tryptic Soy Broth with 15% glycerol. The minimal inhibitory concentration (MIC) is defined as the lowest concentration of the compound that prevents visible growth of bacteria using the microdilution method followed the EUCAST guidelines. Each compound was added to 96-well microplates in two-fold dilutions at concentrations from 3.125 to 100 μM in Mueller–Hinton broth. […] Bacterial culture was added into wells at a density of 5 × 10^5 CFU mL^−1, and plates were incubated at 37 °C for 18 h. As a positive control, an untreated bacterial culture was used, and a clear culture medium served as a negative control. The optical density at OD600 was measured using the SpectraMax i3 Multi-Mode Platform (Molecular Devices, San Jose, CA, USA). Ciprofloxacin hydrochloride (CIP, Sigma-Aldrich, Darmstadt, Germany) was used as a reference antimicrobial drug.
Background: In broth dilution the organism is exposed to a series of concentrations in liquid medium.

In test [2] the test system is Escherichia coli NCTC 8196. Nature of the test: MIC, two-fold microdilution (EUCAST), E. coli reference strain. In kind it is cell-based. As to conditions: Escherichia coli, NCTC8196, 18 h, read-out: MIC (µM) Escherichia coli NCTC 8196.
Source text: as §1, §2

The subject of test [3] is Pseudomonas aeruginosa NCTC 6749. As to the kind of experiment: MIC, two-fold microdilution (EUCAST), P. aeruginosa reference strain. In kind it is cell-based. The settings on record: Pseudomonas aeruginosa, NCTC6749, 18 h, read-out: MIC (µM) Pseudomonas aeruginosa NCTC 6749.
Source text: as §1, §2

The next test concerns HeLa cells. As to the kind of experiment: Intracellular ROS measurement (H2DCFDA, flow cytometry). The test is classed as cell-based, human. The settings on record: 24 h, concentration equal to IC50, H2DCFDA staining. As to the method:
The intracellular ROS levels were evaluated using 2′,7′-dichlorofluorescein diacetate (H2DCFDA) staining. This cell membrane-permeable probe is deacetylated by cellular esterases to a non-fluorescent compound, which is then oxidized by ROS to 2′,7′-dichlorofluorescein (DCF), which remains in cells, is not removed from them, and emits strong fluorescence that can be quantified using a flow cytometer. To evaluate oxidative stress, HeLa cells were treated with the respective compound at a concentration equal to its IC50 value for 24 h, followed by staining with H2DCFDA. […]
Figure 5 Intracellular ROS generation in HeLa cells after treatment with 5 (blue) and 7 (green) for 24 h at 37 °C and 5% CO2. […] Oxidative stress was evaluated using H2DCFDA by flow cytometry. Data are expressed as the mean ± SD of two experiments. Statistical significance in comparison with the untreated control, measured by two-way analysis of variance (ANOVA) followed by Bonferroni multiple comparison test, is indicated by asterisks: (*) p < 0.05.
Reactive oxygen species measurement: The intracellular level of ROS was analysed by staining with 2′,7′–dichlorofluorescein diacetate (H2DCFDA, Sigma-Aldrich, Darmstadt, Germany). […] This product is highly fluorescent and can be detected on a flow cytometer. […]

Molecules are shown by their SMILES.

The record followed here is PMC11012799 (Molecules, 2024).

Broadly, the MIC is the lowest concentration found to suppress growth. For the molecule `CC(C)C[C@H]1CN1c1ccccc1P(=O)(c1ccccc1)c1ccccc1` [Compound 7], the MIC in test [1], in test [2] and in test [3] was greater than 100 µM each time. Moreover, the “intracellular ROS levels compared to untreated control” value in the test with HeLa cells was “increase in ROS levels”.

Turning to `CC(C)[C@@H]1CN1c1ccccc1P(=O)(c1ccccc1)c1ccccc1` [Compound 5], the minimal inhibitory concentration (MIC) in test [1], in test [2] and in test [3] was greater than 100 µM in each case. The “intracellular ROS levels compared to untreated control” value in the test on HeLa cells was “the effect was significant only for 5”.
